Data on two compounds can be found in publication doi:10.1101/2023.05.30.542953v1 (biorxiv, 2023).

The test system of this assay is LhCE. Put plainly: UV-Vis Michaelis-Menten hydrolysis assay. The class given is biochemical, Lactobacillus helveticus. The note with it: 50 mM HEPES pH 8, 21 °C, 10 nM enzyme.

With `CCOC(=O)/C=C/c1ccc(O)c(OC)c1` [ethyl ferulate], the Km (substrate stock in 5% ethanol) was found to be 386 ± 46 µM.

Consider `O=C(/C=C/c1ccc(O)c(O)c1)O[C@@H]1C[C@](O)(C(=O)O)C[C@@H](O)[C@H]1O` [chlorogenic acid], for which the Km was 147 ± 41 µM.
